Test results published in PubChem BioAssay (NCI).
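The compound was tested at five concentrations on cells cultured in 96-well plates, with a 48-hour exposure period. TGI denotes the concentration required for complete inhibition of growth.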

Key:
Assay in all cases: growth of human tumour cells (NCI), 48 h
[1] = tested on: KM12 colon
[2] = tested on: SNB-75 CNS
[3] = tested on: SK-OV-3 ovarian
[4] = tested on: NCI/ADR-RES ovarian
[5] = tested on: MOLT-4 leukemia
[6] = tested on: TK-10 renal
[7] = tested on: COLO 205 colon
[8] = tested on: NCI-H226 lung
[9] = tested on: OVCAR-4 ovarian
[10] = tested on: PC-3 prostate
[11] = tested on: CCRF-CEM leukemia
[12] = tested on: T-47D breast
[13] = tested on: SF-539 CNS
[14] = tested on: SF-268 CNS
[15] = tested on: HOP-62 NSCLC
[16] = tested on: NCI-H522 lung
[17] = tested on: BT-549 breast
[18] = tested on: LOX IMVI melanoma
[19] = tested on: HOP-92 NSCLC
[20] = tested on: U251 CNS
[21] = tested on: MDA-N
[22] = tested on: RPMI-8226 leukemia
[23] = tested on: OVCAR-3 ovarian
[24] = tested on: SW-620 colon
[25] = tested on: K-562 leukemia
[26] = tested on: SN12C renal
[27] = tested on: UO-31 renal
[28] = tested on: SR leukemia
[29] = tested on: HT29 colon
[30] = tested on: HCC-2998 colon
[31] = tested on: HS 578T breast
[32] = tested on: CAKI-1 renal
[33] = tested on: EKVX NSCLC
[34] = tested on: OVCAR-8 ovarian
[35] = tested on: HL-60(TB) leukemia
[36] = tested on: MALME-3M melanoma
[37] = tested on: HCT-116 colon
[38] = tested on: NCI-H23 lung
[39] = tested on: RXF 393 renal
[40] = tested on: SF-295 CNS
[41] = tested on: UACC-62 melanoma
[42] = tested on: MDA-MB-231 breast
[43] = tested on: A549 NSCLC
[44] = tested on: 786-0 renal
[45] = tested on: OVCAR-5 ovarian
[46] = tested on: ACHN renal
[47] = tested on: SK-MEL-5 melanoma
[48] = tested on: A498 renal
[49] = tested on: DU-145 prostate
[50] = tested on: SK-MEL-28 melanoma
[51] = tested on: HCT-15 colon
[52] = tested on: MDA-MB-435
[53] = tested on: NCI-H460 lung
[54] = tested on: IGROV1 ovarian
[55] = tested on: MCF7 breast
[56] = tested on: SK-MEL-2 melanoma
[57] = tested on: UACC-257 melanoma
[58] = tested on: SNB-19 CNS
[59] = tested on: M14 melanoma

Measured: TGI

CN(/N=C(\C(=O)O)c1ccccc1)C1=NCCCN1
not listed: [58] | [59]
> 100 µM: all other assays above

COc1ccc(NC(=O)CC(=O)N2N=C(C)C(N=Nc3ccc(S(=O)(=O)c4ccc(N=NC5C(=O)N(C(=O)CC(=O)Nc6ccc(OC)cc6)N=C5C)cc4)cc3)C2=O)cc1 (stereo not given)
not listed: [45]
> 100 µM: all other assays above
